Experimental data: PMC9322052, “Synthesis and Biological Activity Screening of Newly Synthesized Trimethoxyphenyl-Based Analogues as Potential Anticancer Agents” (Molecules, 2022)

Assays:
[1] = test system: normal liver cell line HL-7702; test: MTT cytotoxicity assay, normal liver cells; format: cell-based; conditions: Homo sapiens, L02, 24 h treatment, mean ± SE
Procedure: All the newly synthesized analogs were evaluated for their in vitro cytotoxicity against the hepatocellular carcinoma HepG2 cell line. Podo was utilized as a reference control in the current study. […] The N-phenyl triazinone derivative 9 was further investigated for its cytotoxic effects against normal liver cell line HL-7702.
MTT colorimetric assay was carried out to investigate the impact of the newly synthesized compounds 2–11 on hepatocellular carcinoma (HepG2) and normal liver cell line (HL-7702) cell lines. See Section 3.3.1 in Supplementary Material.
(§1) 3.3.1. Cytotoxic activity evaluation
(§2) To measure the cytotoxic activity of the synthesized derivatives 2a-11 in hepatocel-lular carcinoma (HepG2) cell line (ATCC Cat No. HB-8065) as well as normal human liver cell line HL-7702 (ATCC Cat. No. 77402), cell viability assay was assessed using MTT assay method. Cells at density of 1 x 104 were seeded in a 96-well plate at 37 °C for 24 h under 5% CO2. […] The color inten-sity of the formazan product, which represents the growth condition of the cells, is quan-tified by using an ELISA plate reader (EXL 800, USA) at 570 nm absorbance. […]
Compounds 9, 10 and 11 were evaluated for their tubulin inhibitory activity levels according to the manufacturer’s instructions using # abcam Human Beta-tubulin simplestep […]
3.3.5. […] The samples were immediately analyzed using cell […]

Bax = test: ELISA quantification of Bax level; format: cell-based, human; conditions: HepG2, 1.38 μM (IC50), 48 h
Procedure: Compound 9 was screened for its ability to activate p53 and Bax as well as downregulate the level of Bcl-2 to investigate the mechanistic apoptotic pathway that catalyzed the apoptosis process. HepG2 cells were treated with compound 9 at a concentration equal to its IC50 in μM, and the level of p53, Bax, and Bcl-2 was quantized using ELISA analysis. The results obtained for compound 9 show the increase in the level of p53 and Bax by 8.91- and 4.50-fold, respectively, compared with the negative control samples.
Apoptotic markers (p53, Bax and Bcl-2) were measured in HepG2 cells using ELISA analysis according to the manufacturer’s directions. See Section 3.3.6 in Supplementary Material.
Figure 6 (A) The quantification of p53. (B) The quantification of Bax. (C) The quantification of Bcl-2. HepG2 cells were treated with 1.38 μM of compound 9 for 48 h and apoptotic markers were determined by ELISA assay.
as §1
as §2, with “method.” for “method. Cells at density of 1 x 104 were seeded in a 96-well plate at 37 °C for 24 h under 5% CO2.”

Compound: COc1ccc(C2=N/C(=C\c3cc(OC)c(OC)c(OC)c3)C(=O)NN2c2ccccc2)cc1OC [Compound 9, (Z)-3-(3,4-Dimethoxyphenyl)-2-Phenyl-5-(3,4,5-Trimethoxybenzylidene)-1,2-Dihydro-1,2,4-Triazin-6(5H)-one]
- IC50 [1]: 29.1 ± 2.03 µM
- increase in level of Bax compared with negative control (Bax): 4.50 fold
